What was measured:
UGT1A7 = target: T1, UGT1A7 (Homo sapiens, UniProt Q9HAW7); experiment: Inhibition screening of recombinant UGTs by NAF enantiomers, UGT1A7 (4-MU); assay type: in vitro ADME; settings: recombinant UGT1A7, probe 4-MU, 100 μM NAF enantiomer, read-out: Inhibition of 4-MU-G formation
T1 construct: purchased BD Gentest
T1 sequence (Q9HAW7 26-530): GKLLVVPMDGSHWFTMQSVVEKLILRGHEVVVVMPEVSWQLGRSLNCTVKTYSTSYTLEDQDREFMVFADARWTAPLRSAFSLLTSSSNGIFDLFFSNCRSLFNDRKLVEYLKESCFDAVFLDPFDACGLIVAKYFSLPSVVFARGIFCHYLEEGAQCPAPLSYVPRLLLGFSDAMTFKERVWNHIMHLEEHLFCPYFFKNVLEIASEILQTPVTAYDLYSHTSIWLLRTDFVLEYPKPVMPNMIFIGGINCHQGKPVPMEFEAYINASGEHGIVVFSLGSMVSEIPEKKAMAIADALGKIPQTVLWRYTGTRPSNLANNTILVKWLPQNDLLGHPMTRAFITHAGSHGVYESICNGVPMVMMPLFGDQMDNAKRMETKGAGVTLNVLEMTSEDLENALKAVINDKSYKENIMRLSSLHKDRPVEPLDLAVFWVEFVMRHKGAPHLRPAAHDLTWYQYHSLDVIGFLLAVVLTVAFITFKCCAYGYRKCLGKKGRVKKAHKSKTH
Method: The inhibition screening study was performed by investigating the 12 recombinant UGTs with 10 and 100 μM NAF enantiomer. […] 4-MU, as a non-specific substrate, was added to the other incubated samples. Instead of NAF enantiomers, the same volume of water was added to be the control sample. […] The formation of 4-MU-G and TFP-G produced from the 12 incubation system were analyzed by HPLC. The instrument parameters for the LC were as follows: system, Agilent 1260; Agilent Eclipse Plus C18 (2.1 mm × 50 mm, 1.8 μm, Santa Clara, CA, United States); mobile phase, methanol: 0.1% formic acid in water (0–3 min, 35:65; 3.1–4.5 min, 65:35; 4.6–5 min, 35:65); flow rate, 0.4 mL/min; column temperature, 25°C; and injection volume, 2 μL. The retention times of 4-MU, 4-MU-G, TFP, TFP-G, and MU (IS) were 1.5, 0.5, 2.2, 1.8, and 1.0 min, respectively.

UGT2B7 = target: T2, UGT2B7 (Homo sapiens, UniProt P16662); experiment: biochemical
T2 sequence (P16662 24-529): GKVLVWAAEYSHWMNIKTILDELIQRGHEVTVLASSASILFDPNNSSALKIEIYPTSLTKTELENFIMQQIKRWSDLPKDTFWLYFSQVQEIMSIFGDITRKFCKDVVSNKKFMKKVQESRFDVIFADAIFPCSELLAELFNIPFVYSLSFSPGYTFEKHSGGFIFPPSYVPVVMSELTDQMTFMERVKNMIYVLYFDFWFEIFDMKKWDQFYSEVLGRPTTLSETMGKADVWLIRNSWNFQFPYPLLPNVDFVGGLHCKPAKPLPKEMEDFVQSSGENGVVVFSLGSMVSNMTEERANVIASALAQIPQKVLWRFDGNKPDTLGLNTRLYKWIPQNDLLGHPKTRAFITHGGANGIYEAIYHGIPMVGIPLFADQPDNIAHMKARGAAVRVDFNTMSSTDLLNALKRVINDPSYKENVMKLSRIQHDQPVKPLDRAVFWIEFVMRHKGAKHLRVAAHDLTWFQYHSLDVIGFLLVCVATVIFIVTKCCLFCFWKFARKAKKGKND
Method: The inhibition of UGT1A9 and UGT2B7 by NAF enantiomer was investigated using the pooled HLM, UGT1A9, and UGT2B7 with concentrations similar to that of the NAF enantiomer. Propofol, which was used as the specific substrate of UGT1A9, was added to the incubation. […] Inhibitor constants (Ki value) were estimated by fitting the expressions for competitive, non-competitive, and mixed inhibition models with Dixon plots and Lineweaver–Burk plots.

[1] = target: T3, recombinant human UGT1A10 (Homo sapiens, UniProt Q9HAW8); experiment: UGT reaction screening of NAF enantiomers, UGT1A10; settings: 10 μM substrate, 45 min
T3 sequence (Q9HAW8 26-530): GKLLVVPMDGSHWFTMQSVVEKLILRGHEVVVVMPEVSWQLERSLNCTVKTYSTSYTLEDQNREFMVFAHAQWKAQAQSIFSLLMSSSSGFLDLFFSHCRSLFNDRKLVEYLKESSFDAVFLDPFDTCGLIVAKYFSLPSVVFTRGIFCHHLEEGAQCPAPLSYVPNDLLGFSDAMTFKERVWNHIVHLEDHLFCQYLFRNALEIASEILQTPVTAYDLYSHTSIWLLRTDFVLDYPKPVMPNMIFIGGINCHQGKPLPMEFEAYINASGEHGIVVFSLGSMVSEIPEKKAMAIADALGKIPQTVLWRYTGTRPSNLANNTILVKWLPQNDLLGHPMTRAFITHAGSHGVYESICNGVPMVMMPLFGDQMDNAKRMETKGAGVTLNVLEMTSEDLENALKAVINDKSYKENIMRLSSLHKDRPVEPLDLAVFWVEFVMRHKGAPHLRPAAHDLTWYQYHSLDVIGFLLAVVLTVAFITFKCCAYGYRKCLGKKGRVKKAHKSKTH

[2] = system: UGT1A1, 1A4, 1A3, 2B17, 1A8, 2B15, and 1A7; experiment: UGT reaction screening of R(+)-NAF, minor isoforms; assay type: in vitro ADME, human; settings: 10 μM substrate, 45 min
recombinant human UGT2B4 = target: T4, recombinant human UGT2B4 (Homo sapiens, UniProt P06133); experiment: UGT reaction screening of NAF enantiomers, UGT2B4; assay type: in vitro ADME; settings: 10 μM substrate, 45 min
T4 construct: purchased BD Gentest
T4 sequence (P06133 24-528): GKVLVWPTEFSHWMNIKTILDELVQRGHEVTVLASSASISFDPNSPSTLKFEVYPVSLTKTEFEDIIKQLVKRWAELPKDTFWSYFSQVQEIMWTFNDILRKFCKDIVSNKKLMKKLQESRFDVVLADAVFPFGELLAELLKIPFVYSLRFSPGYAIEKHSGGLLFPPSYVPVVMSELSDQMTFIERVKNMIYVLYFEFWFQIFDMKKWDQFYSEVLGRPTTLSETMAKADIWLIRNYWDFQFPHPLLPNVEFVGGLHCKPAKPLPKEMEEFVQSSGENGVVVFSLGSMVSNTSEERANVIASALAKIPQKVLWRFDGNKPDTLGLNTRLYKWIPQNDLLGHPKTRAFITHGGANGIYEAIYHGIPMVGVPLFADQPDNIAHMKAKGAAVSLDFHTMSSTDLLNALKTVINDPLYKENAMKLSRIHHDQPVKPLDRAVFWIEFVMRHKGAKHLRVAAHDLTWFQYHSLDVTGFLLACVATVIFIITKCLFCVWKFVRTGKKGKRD

[3] = system: UGT1A4, 1A3, 2B17, 2B15, 1A9, 1A8, and 1A7; experiment: UGT reaction screening of S(-)-NAF, minor isoforms; assay type: in vitro ADME, human; settings: 10 μM substrate, 45 min

Structure (SMILES) | inhibition at 100 μM (UGT1A7) [%] | Ki (UGT2B7) [µM] | Glucuronide formation by UGT1A10 [1] | Glucuronidation activity, times lower than UGT2B7 [2] | Glucuronidation activity of UGT2B4 compared with UGT2B7 (recombinant human UGT2B4) | Glucuronidation activity [3]
COc1ccccc1N1CCN(C[C@@H](O)COc2cccc3ccccc23)CC1 [R(+)-NAF] | > 75 | 12.1 ± 2.2 | No R(+)-NAF-G was detected | more than 10 times |  | 
COc1ccccc1N1CCN(C[C@H](O)COc2cccc3ccccc23)CC1 [S(-)-NAF] | > 75 | 18.5 ± 3.3 | no activity |  | relatively higher activity than UGT2B7 | a small amount of activity

From article PMC5769128, “Human UDP-Glucuronosyltransferase 2B4 and 2B7 Are Responsible for Naftopidil Glucuronidation in Vitro” (Frontiers in Pharmacology, 2018)
